Test results published in PubChem BioAssay AID180 (DTP/NCI, 2004).
“And” between values parts separate entries of the source, which are not always exact repeats. Equal values may be shown once.

Tested on: BDF1 mice, Adenocarcinoma 755 s.c., tumor weight T/C
Assay: NCI In Vivo Anticancer Drug Screen. Data for tumor model Adenocarcinoma 755 (subcutaneous) in B6D2F1 (BDF1) mice
Conditions: endpoint: mean tumor weight, higher = larger tumour
Summary of the method: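 Compound activity was tested in mice carrying transplanted tumors. Survival or tumor size was measured, and each value is the treated-group measurement divided by that of the vehicle-treated control group (T/C).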

[1] = dose: 3.1 mg/kg/injection, schedule: Q01DX011 (ip), vehicle: methylcellulose (MC)
[2] = dose: 12.5 mg/kg/injection, schedule: Q01DX011 (ip), vehicle: methylcellulose (MC)
[3] = dose: 12.5 mg/kg/injection, schedule: Q01DX011 (ip), vehicle: saline
[4] = dose: 25.0 mg/kg/injection, schedule: Q01DX011 (ip), vehicle: saline
[5] = dose: 50.0 mg/kg/injection, schedule: Q01DX011 (ip), vehicle: saline

Nc1nc2n[nH]nc2c(=O)[nH]1
T/C (dose: 11.18 mg/kg/injection, schedule: Q01DX011 (ip), vehicle: carboxymethylcellulose (CMC)): 80 % of control | T/C (dose: 12.5 mg/kg/injection, schedule: Q01DX011 (ip), vehicle: other): 62 % of control and 80 % of control | T/C (dose: 13.55 mg/kg/injection, schedule: Q01DX011 (ip), vehicle: carboxymethylcellulose (CMC)): 85 % of control | T/C (dose: 17.88 mg/kg/injection, schedule: Q01DX011 (ip), vehicle: carboxymethylcellulose (CMC)): 98 % of control | T/C (dose: 22.35 mg/kg/injection, schedule: Q01DX011 (ip), vehicle: carboxymethylcellulose (CMC)): 70 % of control and 76 % of control | T/C (dose: 27.1 mg/kg/injection, schedule: Q01DX011 (ip), vehicle: carboxymethylcellulose (CMC)): 80 % of control | T/C (dose: 29.8 mg/kg/injection, schedule: Q01DX011 (ip), vehicle: carboxymethylcellulose (CMC)): 59 % of control | T/C (dose: 37.5 mg/kg/injection, schedule: Q01DX011 (sc), vehicle: carboxymethylcellulose (CMC)): 11 % of control | T/C (dose: 44.7 mg/kg/injection, schedule: Q01DX011 (ip), vehicle: carboxymethylcellulose (CMC)): 17 % of control and 33 % of control | T/C (dose: 75.0 mg/kg/injection, schedule: Q01DX011 (sc), vehicle: carboxymethylcellulose (CMC)): 5 % of control | T/C (dose: 89.4 mg/kg/injection, schedule: Q01DX011 (ip), vehicle: carboxymethylcellulose (CMC)): 4 % of control and 6 % of control | T/C (dose: 108.4 mg/kg/injection, schedule: Q01DX011 (ip), vehicle: carboxymethylcellulose (CMC)): 3 % of control and 4 % of control

Cc1cn(C2OC(CO)C(O)C2O)c(=O)[nH]c1=O (stereo not given)
T/C (dose: 62.0 mg/kg/injection, schedule: Q01DX011 (ip), vehicle: saline): 86 % of control | T/C (dose: 125.0 mg/kg/injection, schedule: Q01DX011 (ip), vehicle: saline): 78 % of control | T/C (dose: 500.0 mg/kg/injection, schedule: Q01DX011 (ip), vehicle: saline): 121 % of control

Cc1cccc(CSc2nc(N)nc3nc[nH]c23)n1
T/C (dose: 3.9 mg/kg/injection, schedule: Q01DX011 (ip), vehicle: methylcellulose (MC)): 17 % of control | T/C (dose: 7.8 mg/kg/injection, schedule: Q01DX011 (ip), vehicle: methylcellulose (MC)): 20 % of control | T/C (dose: 15.6 mg/kg/injection, schedule: Q01DX011 (ip), vehicle: methylcellulose (MC)): 5 % of control | T/C (dose: 31.25 mg/kg/injection, schedule: Q01DX011 (ip), vehicle: methylcellulose (MC)): 1 % of control

CC(C)CCn1cnc2c(=S)nc(N)[nH]c21
T/C (dose: 1.5 mg/kg/injection, schedule: Q01DX011 (ip), vehicle: methylcellulose (MC)): 48 % of control | T/C [1]: 37 % of control | T/C (dose: 6.2 mg/kg/injection, schedule: Q01DX011 (ip), vehicle: methylcellulose (MC)): 14 % of control | T/C [2]: 1 % of control and 9 % of control

c1cc(CSc2ncnc3nc[nH]c23)ccn1
T/C [1]: 72 % of control | T/C (dose: 6.25 mg/kg/injection, schedule: Q01DX011 (ip), vehicle: methylcellulose (MC)): 39 % of control | T/C [2]: 29 % of control | T/C (dose: 25.0 mg/kg/injection, schedule: Q01DX011 (ip), vehicle: methylcellulose (MC)): 16 % of control and 25 % of control | T/C (dose: 50.0 mg/kg/injection, schedule: Q01DX011 (ip), vehicle: methylcellulose (MC)): 12 % of control | T/C (dose: 100.0 mg/kg/injection, schedule: Q01DX011 (ip), vehicle: methylcellulose (MC)): 7 % of control | T/C (dose: 200.0 mg/kg/injection, schedule: Q01DX011 (ip), vehicle: methylcellulose (MC)): 2 % of control

Nc1cnc(=O)[nH]c1N
T/C (dose: 30.0 mg/kg/injection, schedule: Q01DX011 (ip), vehicle: carboxymethylcellulose (CMC)): 92 % of control | T/C (dose: 60.0 mg/kg/injection, schedule: Q01DX011 (ip), vehicle: carboxymethylcellulose (CMC)): 92 % of control | T/C (dose: 120.0 mg/kg/injection, schedule: Q01DX011 (ip), vehicle: carboxymethylcellulose (CMC)): 122 % of control | T/C (dose: 400.0 mg/kg/injection, schedule: Q01DX011 (ip), vehicle: carboxymethylcellulose (CMC)): 78 % of control | T/C (dose: 600.0 mg/kg/injection, schedule: Q01DX011 (ip), vehicle: carboxymethylcellulose (CMC)): 96 % of control

Nc1ncnc2c1ncn2C1CCCCC1
T/C (dose: 34.0 mg/kg/injection, schedule: Q01DX011 (oral), vehicle: carboxymethylcellulose (CMC)): 75 % of control | T/C (dose: 68.0 mg/kg/injection, schedule: Q01DX011 (oral), vehicle: carboxymethylcellulose (CMC)): 120 % of control | T/C (dose: 136.0 mg/kg/injection, schedule: Q01DX011 (oral), vehicle: carboxymethylcellulose (CMC)): 78 % of control | T/C (dose: 272.0 mg/kg/injection, schedule: Q01DX011 (oral), vehicle: carboxymethylcellulose (CMC)): 106 % of control

C[C@]12CCC(=O)C=C1CC[C@@H]1[C@@H]2[C@@H](O)C[C@@]2(C)[C@H]1CC[C@]2(O)C(=O)CO
T/C (dose: 2.5 mg/kg/injection, schedule: Q01DX011 (sc), vehicle: steriod suspending solution): 96 % of control | T/C (dose: 4.0 mg/kg/injection, schedule: Q01DX011 (sc), vehicle: steriod suspending solution): 49 % of control | T/C (dose: 5.0 mg/kg/injection, schedule: Q01DX011 (sc), vehicle: steriod suspending solution): 110 % of control | T/C (dose: 8.7 mg/kg/injection, schedule: Q01DX011 (sc), vehicle: steriod suspending solution): 49 % of control | T/C (dose: 10.0 mg/kg/injection, schedule: Q01DX011 (sc), vehicle: steriod suspending solution): 56 % of control | T/C (dose: 17.5 mg/kg/injection, schedule: Q01DX011 (sc), vehicle: steriod suspending solution): 32 % of control | T/C (dose: 20.0 mg/kg/injection, schedule: Q01DX011 (sc), vehicle: steriod suspending solution): 32 % of control and 34 % of control | T/C (dose: 35.0 mg/kg/injection, schedule: Q01DX011 (sc), vehicle: steriod suspending solution): 24 % of control | T/C (dose: 40.0 mg/kg/injection, schedule: Q01DX011 (sc), vehicle: steriod suspending solution): 11 % of control | T/C (dose: 70.0 mg/kg/injection, schedule: Q01DX011 (sc), vehicle: steriod suspending solution): 8 % of control | T/C (dose: 80.0 mg/kg/injection, schedule: Q01DX011 (sc), vehicle: steriod suspending solution): 13 % of control | T/C (dose: 140.0 mg/kg/injection, schedule: Q01DX011 (sc), vehicle: steriod suspending solution): 1 % of control

C[N+](C)(C)c1ncnc2c1ncn2C1OC(CO)C(O)C1O (stereo not given)
T/C (dose: 30.0 mg/kg/injection, schedule: Q01DX011 (ip), vehicle: saline): 48 % of control and 61 % of control | T/C (dose: 60.0 mg/kg/injection, schedule: Q01DX011 (ip), vehicle: saline): 109 % of control | T/C (dose: 120.0 mg/kg/injection, schedule: Q01DX011 (ip), vehicle: saline): 28 % of control | T/C (dose: 240.0 mg/kg/injection, schedule: Q01DX011 (ip), vehicle: saline): 9 % of control

CC1CN1P(=O)(N1CCCC1)N1CC1C (stereo not given)
T/C (dose: 6.3 mg/kg/injection, schedule: Q01DX011 (ip), vehicle: saline): 73 % of control | T/C [3]: 58 % of control | T/C [4]: 19 % of control and 20 % of control | T/C [5]: 2 % of control and 3 % of control

Cn1c(N)nc2nc[nH]c2c1=O
T/C (dose: 9.3 mg/kg/injection, schedule: Q01DX011 (ip), vehicle: methylcellulose (MC)): 79 % of control | T/C (dose: 18.7 mg/kg/injection, schedule: Q01DX011 (ip), vehicle: methylcellulose (MC)): 68 % of control | T/C (dose: 37.5 mg/kg/injection, schedule: Q01DX011 (ip), vehicle: methylcellulose (MC)): 29 % of control

O=P1(N(CCCl)CCCl)NCCCO1 (stereo not given)
T/C (dose: 6.25 mg/kg/injection, schedule: Q01DX011 (ip), vehicle: saline): 87 % of control | T/C (dose: 7.13 mg/kg/injection, schedule: Q01DX011 (ip), vehicle: carboxymethylcellulose (CMC)): 59 % of control | T/C (dose: 7.66 mg/kg/injection, schedule: Q01DX011 (ip), vehicle: carboxymethylcellulose (CMC)): 92 % of control | T/C (dose: 10.22 mg/kg/injection, schedule: Q01DX011 (ip), vehicle: carboxymethylcellulose (CMC)): 92 % of control | T/C (dose: 11.4 mg/kg/injection, schedule: Q01DX011 (ip), vehicle: carboxymethylcellulose (CMC)): 46 % of control | T/C (dose: 12.25 mg/kg/injection, schedule: Q01DX011 (ip), vehicle: carboxymethylcellulose (CMC)): 52 % of control | T/C (dose: 12.5 mg/kg/injection, schedule: Q01DX011 (ip), vehicle: carboxymethylcellulose (CMC)): 57 % of control | T/C [3]: 36 % of control and 60 % of control | T/C (dose: 14.25 mg/kg/injection, schedule: Q01DX011 (ip), vehicle: carboxymethylcellulose (CMC)): 22 % of control and 29 % of control | T/C (dose: 19.0 mg/kg/injection, schedule: Q01DX011 (ip), vehicle: carboxymethylcellulose (CMC)): 22 % of control | T/C (dose: 20.43 mg/kg/injection, schedule: Q01DX011 (ip), vehicle: carboxymethylcellulose (CMC)): 66 % of control | T/C (dose: 25.0 mg/kg/injection, schedule: Q01DX011 (ip), vehicle: carboxymethylcellulose (CMC)): 8 % of control | T/C [4]: 30 % of control and 55 % of control | T/C (dose: 28.5 mg/kg/injection, schedule: Q01DX011 (ip), vehicle: carboxymethylcellulose (CMC)): 4 % of control and 15 % of control | T/C (dose: 30.65 mg/kg/injection, schedule: Q01DX011 (ip), vehicle: carboxymethylcellulose (CMC)): 6 % of control and 29 % of control | T/C [5]: 8 % of control and 17 % of control | T/C (dose: 57.0 mg/kg/injection, schedule: Q01DX011 (ip), vehicle: carboxymethylcellulose (CMC)): 3 % of control | T/C (dose: 61.3 mg/kg/injection, schedule: Q01DX011 (ip), vehicle: carboxymethylcellulose (CMC)): 5 % of control
